# Test results: patent US20250281480A1, “PHARMACEUTICAL DRY POWDER INHALATION FORMULATION” (Bayer Aktiengesellschaft, priority 2021, published 2025)
# Tests used:
# cGMP = assay: Phase I, healthy male subjects, inhaled once daily for 14 days: cGMP; assay type: in vivo, human; conditions: for cGMP changes from baseline: 1000 μg inhaled once daily for 14 days, n = 17; for cGMP concntration over time (mean +/− standard deviation): 1000 μg inhaled once daily, 14 days
# Protocol: Healthy white male subjects, aged 18 to 45 years and with a body mass index (BMI) above/equal 18.5 and below/equal 29.9 kg/m2 were treated in a clinical pharmacological phase I study for 14 days with inhaled once daily doses of 1000 μg (nominal dose) or Placebo of dry powder of example 4. […] Drug activity/target engagement in healthy men was controlled in the healthy subjects by analysing blood samples for cGMP.
# [1] = test system: patients with PAH or CTEPH; assay: Phase 1b, inhaled single doses in patients with PAH or CTEPH: pulmonary vascular resistance (PVR), mPAP by right heart catheterization; assay type: in vivo, human
# Protocol: Patients with PAH or CTEPH were treated in a clinical phase 1b study with escalating orally inhaled single doses* of 240 μg (2 capsules of 120 μg), 480 μg, 1000 μg, 2000 (2 capsules of 1000 μg) or […] (4 capsules of 1000 μg) of a dry powder of example 4 (see under C-1, e.g. tables 17 and 20), inserted into a handheld inhalation device, inhaled by deep inhalative breath into the deep parts of the lung. (*single dose means the administration of one dosage form/capsule as well as administration of two or more dosage forms/capsules simultaneously or consecutively within a short time period). The included patients had no background treatment with standard of care (SoC) medication for PAH or CTEPH (such as endothelin antagonists, prostanoids, phosphodiesterase type 5 inhibitor or soluble guanylate cyclase stimulators). Patients in this study underwent invasive right heart catheterization as medically indicated routine diagnostic. Primary objective of the study was to investigate the peak percent reduction from baseline in PVR. Patients had to have a baseline pulmonary artery pressure (mPAP) of ≥25 mmHg and a PVR of ≥400 dyn·sec·cm^−5 (5 Wood Units) and were not to show vaso-responsiveness to initial iNO inhalation testing to be included in the per protocol analysis. Plasma concentrations (pharmacokinetics) of the administered drug at several time points after administration were measured and safety and tolerability was assessed.
# The study is divided into two parts, Part A and Part B. In Part A escalating aforementioned single doses were administered to patients without background treatment with standard of care (SoC) medication for PAH or CTEPH (such as endothelin antagonists, prostanoids, phosphodiesterase type 5 inhibitor or soluble guanylate cyclase stimulators). In Part B, after finalization of Part A, a selected dose from Part A will be tested in further patients without background SoC treatment (group 1) and additionally in patients on monotherapy with SoC (group 2) and on dual combination therapy with SoC (group 3).
# The PVR is a derived parameter from parameters directly measured during the right heart catheterization procedure. The direct parameters included in the calculation are: mean pulmonary arterial pressure [mmHg](mPAP), pulmonary capillary wedge pressure [mmHg](PCWP), and cardiac output [1/min](CO). The PVR is calculated according to the formula: PVR [dyn*sec*cm^−5]=80*(mPAP−PCWP)/CO.
smiles,measurement,setting,value
"O=C(O)c1ccc(CCN(CCc2ccccc2OCc2ccc(-c3ccc(C(F)(F)F)cc3)cc2Cl)[C@H]2CCCc3nc(C(=O)O)ccc32)cc1 [Example 4, (5S)—{[2-(4-Carboxyphenyl)ethyl][2-(2-{[3-chloro-4′-(trifluoromethyl)biphenyl-4-yl]methoxy}phenyl)-ethyl]amino}-5,6,7,8-tetrahydroquinoline-2-carboxylic Acid as Monohydrate I]",cGMP changes from baseline,cGMP; 0 D 02 H 00 M,4840 pmol/L
same,cGMP changes from baseline,cGMP; 0 D 04 H 00 M,7290 pmol/L
same,cGMP changes from baseline,cGMP; 0 D 06 H 00 M,9950 pmol/L
same,cGMP changes from baseline,cGMP; 0 D 08 H 00 M,10600 pmol/L
same,cGMP changes from baseline,cGMP; 0 D 12 H 00 M,7530 pmol/L
same,cGMP changes from baseline,cGMP; 0 D 15 H 00 M,6740 pmol/L
same,cGMP changes from baseline,cGMP; 1 D 00 H 00 M,2980 pmol/L
same,cGMP changes from baseline,cGMP; 2 D 00 H 00 M,4550 pmol/L
same,cGMP changes from baseline,cGMP; 2 D 03 H 00 M,13000 pmol/L
same,cGMP changes from baseline,cGMP; 2 D 08 H 00 M,16400 pmol/L
same,cGMP changes from baseline,cGMP; 2 D 12 H 00 M,12600 pmol/L
same,cGMP changes from baseline,cGMP; 3 D 00 H 00 M (trough prior inhalation),5160 pmol/L
same,cGMP changes from baseline,cGMP; 4 D 00 H 00 M (trough prior inhalation),6360 pmol/L
same,cGMP changes from baseline,cGMP; 5 D 00 H 00 M (trough prior inhalation),5920 pmol/L
same,cGMP changes from baseline,cGMP; 6 D 00 H 00 M,5090 pmol/L
same,cGMP changes from baseline,cGMP; 6 D 03 H 00 M,13400 pmol/L
same,cGMP changes from baseline,cGMP; 6 D 08 H 00 M,20100 pmol/L
same,cGMP changes from baseline,cGMP; 6 D 12 H 00 M,13900 pmol/L
same,cGMP changes from baseline,cGMP; 7 D 00 H 00 M (trough prior inhalation),6180 pmol/L
same,cGMP changes from baseline,cGMP; 8 D 00 H 00 M (trough prior inhalation),6200 pmol/L
same,cGMP changes from baseline,cGMP; 9 D 00 H 00 M (trough prior inhalation),6580 pmol/L
same,cGMP changes from baseline,cGMP; 10 D 00 H 00 M,6450 pmol/L
same,cGMP changes from baseline,cGMP; 10 D 03 H 00 M,12700 pmol/L
same,cGMP changes from baseline,cGMP; 10 D 08 H 00 M,17500 pmol/L
same,cGMP changes from baseline,cGMP; 10 D 12 H 00 M,13000 pmol/L
same,cGMP changes from baseline,cGMP; 11 D 00 H 00 M (trough prior inhalation),6940 pmol/L
same,cGMP changes from baseline,cGMP; 12 D 00 H 00 M (trough prior inhalation),8060 pmol/L
same,cGMP changes from baseline,cGMP; 12 D 22 H 00 M,6950 pmol/L
same,cGMP changes from baseline,cGMP; 13 D 02 H 00 M (after last inhalation),9120 pmol/L
same,cGMP changes from baseline,cGMP; 13 D 04 H 00 M (after last inhalation),12900 pmol/L
same,cGMP changes from baseline,cGMP; 13 D 06 H 00 M (after last inhalation),17000 pmol/L
same,cGMP changes from baseline,cGMP; 13 D 08 H 00 M (after last inhalation),17700 pmol/L
same,cGMP changes from baseline,cGMP; 13 D 12 H 00 M (after last inhalation),12900 pmol/L
same,cGMP changes from baseline,cGMP; 13 D 15 H 00 M (after last inhalation),12100 pmol/L
same,cGMP changes from baseline,cGMP; 14 D 00 H 00 M (after last inhalation),5410 pmol/L
same,cGMP changes from baseline,cGMP; 15 D 00 H 00 M (after last inhalation),2520 pmol/L
same,cGMP changes from baseline,cGMP; 15 D 12 H 00 M (after last inhalation),3040 pmol/L
same,cGMP changes from baseline,cGMP; 16 D 00 H 00 M (after last inhalation),2000 pmol/L
same,cGMP changes from baseline,cGMP; 16 D 12 H 00 M (after last inhalation),2410 pmol/L
same,cGMP changes from baseline,cGMP; 17 D 00 H 00 M (after last inhalation),400 pmol/L
same,cGMP changes from baseline,cGMP; 20 D 00 H 00 M (after last inhalation),1220 pmol/L
same,cGMP changes from baseline,cGMP; FOLLOW-UP,1520 pmol/L
same,cGMP changes from baseline,cGMP; −0 D 09 H 00 M (pretreatment day),224 pmol/L
same,cGMP changes from baseline,cGMP; −0 D 12 H 00 M (pretreatment day),306 pmol/L
same,cGMP changes from baseline,cGMP; −0 D 16 H 00 M (pretreatment day),676 pmol/L
same,cGMP changes from baseline,cGMP; −0 D 18 H 00 M (pretreatment day),−252.9 +/− 1345.9
same,cGMP changes from baseline,cGMP; −0 D 20 H 00 M (pretreatment day),−952.9 +/− 1984.7
same,cGMP changes from baseline,cGMP; −0 D 22 H 00 M (pretreatment day),−100.0 +/− 1403.1
same,cGMP concntration over time (mean +/− standard deviation),cGMP; 0 D 02 H 00 M,9170 pmol/L
same,cGMP concntration over time (mean +/− standard deviation),cGMP; 0 D 04 H 00 M,11600 pmol/L
same,cGMP concntration over time (mean +/− standard deviation),cGMP; 0 D 06 H 00 M,14300 pmol/L
same,cGMP concntration over time (mean +/− standard deviation),cGMP; 0 D 08 H 00 M,14900 pmol/L
same,cGMP concntration over time (mean +/− standard deviation),cGMP; 0 D 12 H 00 M,11800 pmol/L
same,cGMP concntration over time (mean +/− standard deviation),cGMP; 0 D 15 H 00 M,11100 pmol/L
same,cGMP concntration over time (mean +/− standard deviation),cGMP; 1 D 00 H 00 M,7310 pmol/L
same,cGMP concntration over time (mean +/− standard deviation),cGMP; 2 D 00 H 00 M,8880 pmol/L
same,cGMP concntration over time (mean +/− standard deviation),cGMP; 2 D 03 H 00 M,17300 pmol/L
same,cGMP concntration over time (mean +/− standard deviation),cGMP; 2 D 08 H 00 M,20800 pmol/L
same,cGMP concntration over time (mean +/− standard deviation),cGMP; 2 D 12 H 00 M,16900 pmol/L
same,cGMP concntration over time (mean +/− standard deviation),cGMP; 3 D 00 H 00 M,9490 pmol/L
same,cGMP concntration over time (mean +/− standard deviation),cGMP; 4 D 00 H 00 M,10700 pmol/L
same,cGMP concntration over time (mean +/− standard deviation),cGMP; 5 D 00 H 00 M,10300 pmol/L
same,cGMP concntration over time (mean +/− standard deviation),cGMP; 6 D 00 H 00 M,9420 pmol/L
same,cGMP concntration over time (mean +/− standard deviation),cGMP; 6 D 03 H 00 M,17700 pmol/L
same,cGMP concntration over time (mean +/− standard deviation),cGMP; 6 D 08 H 00 M,24500 pmol/L
same,cGMP concntration over time (mean +/− standard deviation),cGMP; 6 D 12 H 00 M,18200 pmol/L
same,cGMP concntration over time (mean +/− standard deviation),cGMP; 7 D 00 H 00 M,10500 pmol/L
same,cGMP concntration over time (mean +/− standard deviation),cGMP; 8 D 00 H 00 M,10500 pmol/L
same,cGMP concntration over time (mean +/− standard deviation),cGMP; 9 D 00 H 00 M,10900 pmol/L
same,cGMP concntration over time (mean +/− standard deviation),cGMP; 10 D 00 H 00 M,10800 pmol/L
same,cGMP concntration over time (mean +/− standard deviation),cGMP; 10 D 03 H 00 M,17100 pmol/L
same,cGMP concntration over time (mean +/− standard deviation),cGMP; 10 D 08 H 00 M,21900 pmol/L
same,cGMP concntration over time (mean +/− standard deviation),cGMP; 10 D 12 H 00 M,17300 pmol/L
same,cGMP concntration over time (mean +/− standard deviation),cGMP; 11 D 00 H 00 M,11300 pmol/L
same,cGMP concntration over time (mean +/− standard deviation),cGMP; 12 D 00 H 00 M,12400 pmol/L
same,cGMP concntration over time (mean +/− standard deviation),cGMP; 12 D 22 H 00 M,11300 pmol/L
same,cGMP concntration over time (mean +/− standard deviation),cGMP; 13 D 02 H 00 M,13400 pmol/L
same,cGMP concntration over time (mean +/− standard deviation),cGMP; 13 D 04 H 00 M,17300 pmol/L
same,cGMP concntration over time (mean +/− standard deviation),cGMP; 13 D 06 H 00 M,21400 pmol/L
same,cGMP concntration over time (mean +/− standard deviation),cGMP; 13 D 08 H 00 M,22000 pmol/L
same,cGMP concntration over time (mean +/− standard deviation),cGMP; 13 D 12 H 00 M,17200 pmol/L
same,cGMP concntration over time (mean +/− standard deviation),cGMP; 13 D 15 H 00 M,16400 pmol/L
same,cGMP concntration over time (mean +/− standard deviation),cGMP; 14 D 00 H 00 M,9740 pmol/L
same,cGMP concntration over time (mean +/− standard deviation),cGMP; 15 D 00 H 00 M,6850 pmol/L
same,cGMP concntration over time (mean +/− standard deviation),cGMP; 15 D 12 H 00 M,7370 pmol/L
same,cGMP concntration over time (mean +/− standard deviation),cGMP; 16 D 00 H 00 M,6330 pmol/L
same,cGMP concntration over time (mean +/− standard deviation),cGMP; 16 D 12 H 00 M,6740 pmol/L
same,cGMP concntration over time (mean +/− standard deviation),cGMP; 17 D 00 H 00 M,4730 pmol/L
same,cGMP concntration over time (mean +/− standard deviation),cGMP; 20 D 00 H 00 M,5520 pmol/L
same,cGMP concntration over time (mean +/− standard deviation),cGMP; FOLLOW-UP,5850 pmol/L
same,cGMP concntration over time (mean +/− standard deviation),cGMP; −0 D 02 H 00 M,4330 pmol/L
same,cGMP concntration over time (mean +/− standard deviation),cGMP; −0 D 09 H 00 M,5490 pmol/L
same,cGMP concntration over time (mean +/− standard deviation),cGMP; −0 D 12 H 00 M,5570 pmol/L
same,cGMP concntration over time (mean +/− standard deviation),cGMP; −0 D 16 H 00 M,5940 pmol/L
same,cGMP concntration over time (mean +/− standard deviation),cGMP; −0 D 18 H 00 M,5010 pmol/L
same,cGMP concntration over time (mean +/− standard deviation),cGMP; −0 D 20 H 00 M,4310 pmol/L
same,cGMP concntration over time (mean +/− standard deviation),cGMP; −0 D 22 H 00 M,5160 pmol/L
same,cGMP concntration over time (mean +/− standard deviation),cGMP; −1 D 02 H 00 M,5260 pmol/L
same,steady state of cGMP concentration reached after,cGMP; 1000 μg once daily inhalation,≤ 11 days
same,"mean pulmonary arterial pressure (mPAP), mean ± SD","[1]; 1000 μg inhaled single dose, N = 4, 0 D 03 H 00 M",34.0 ± 11.6 mmHg
same,enduring mean change of PVR from baseline,[1]; 2000 μg group,approximately −30%
same,enduring mean change of PVR from baseline,[1]; 4000 μg group,approximately −30%
same,effect sustained with no decrease in response until end of measurement period,[1]; PVR after single inhaled dose,≥ 3 h
same,tolerability,[1]; including the highest dose of 4000 μg,good tolerability
